Experimental data from the supplement of paper PMC10307832.

Key:
Experiment in all cases: relative viability (nuclei count vs DMSO), 5 days (fraction); higher = more cells survive
RO-3306 + Dasatinib = compound: C1=CC2=C(C=CC(=C2)C=C3C(=O)NC(=NCC4=CC=CS4)S3)N=C1 [RO-3306] + Cc1nc(Nc2ncc(C(=O)Nc3c(C)cccc3Cl)s2)cc(N2CCN(CCO)CC2)n1 [Dasatinib] (partner 0.075 µM)
Outline: (§1)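 Dosing by pin tool came one day after lung cancer cell lines were seeded in 1536-well plates, using either one drug or a fixed anchor-drug dose plus five library-drug doses (not always all listed) in √10 steps. After 5 days, nuclei were counted on 4× images. Relative viability is treated-well nuclei count divided by vehicle-well nuclei count, and values are medians of duplicate plates.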

RO-3306 + Decitabine = compound: C1=CC2=C(C=CC(=C2)C=C3C(=O)NC(=NCC4=CC=CS4)S3)N=C1 [RO-3306] + Nc1ncn([C@H]2C[C@H](O)[C@@H](CO)O2)c(=O)n1 [Decitabine] (partner 2 µM)
Outline: as §1

[1] = compound: O=S(=O)(c1ccccc1)N(CC(F)(F)F)c1ccc(C(O)(C(F)(F)F)C(F)(F)F)cc1 + CC1(C)CCC(c2ccc(Cl)cc2)=C(CN2CCN(c3ccc(C(=O)NS(=O)(=O)c4ccc(N[C@H](CCN5CCOCC5)CSc5ccccc5)c(S(=O)(=O)C(F)(F)F)c4)cc3)CC2)C1 [Navitoclax] (partner 0.5 µM)
Outline: as §1

[2] = compound: O=S(=O)(c1ccccc1)N(CC(F)(F)F)c1ccc(C(O)(C(F)(F)F)C(F)(F)F)cc1 + CS(=O)(=O)CCNCc1ccc(-c2ccc3ncnc(Nc4ccc(OCc5cccc(F)c5)c(Cl)c4)c3c2)o1 [Lapatinib] (partner 2 µM)
Outline: as §1

[3] = compound: O=S(=O)(c1ccccc1)N(CC(F)(F)F)c1ccc(C(O)(C(F)(F)F)C(F)(F)F)cc1 + O=C(CCCCCCC(=O)Nc1ccccc1)NO [Vorinostat] (partner 1 µM)
Outline: as §1

| Cell Line | relative viability (RO-3306 + Dasatinib; first compound 0.01 µM) | relative viability (RO-3306 + Dasatinib; first compound 0.03162 µM) | relative viability (RO-3306 + Dasatinib; first compound 0.1 µM) | relative viability (RO-3306 + Dasatinib; first compound 0.3162 µM) | relative viability (RO-3306 + Dasatinib; first compound 1 µM) | relative viability (RO-3306 + Decitabine; first compound 0.01 µM) | relative viability (RO-3306 + Decitabine; first compound 0.03162 µM) | relative viability (RO-3306 + Decitabine; first compound 0.1 µM) | relative viability (RO-3306 + Decitabine; first compound 0.3162 µM) | relative viability (RO-3306 + Decitabine; first compound 1 µM) | relative viability ([1]; first compound 0.8 µM) | relative viability ([1]; first compound 2.53 µM) | relative viability ([1]; first compound 8 µM) | relative viability ([2]; first compound 0.8 µM) | relative viability ([2]; first compound 2.53 µM) | relative viability ([2]; first compound 8 µM) | relative viability ([3]; first compound 0.8 µM) | relative viability ([3]; first compound 2.53 µM) | relative viability ([3]; first compound 8 µM) |
| --- | --- | --- | --- | --- | --- | --- | --- | --- | --- | --- | --- | --- | --- | --- | --- | --- | --- | --- | --- |
| NCI-H596 | 0.557 | 0.554 | 0.657 | 0.665 | 0.552 | 0.985 | 0.805 | 0.882 | 1.02 | 0.891 | 1.02 | 0.904 | 0.826 | 0.999 | 0.828 | 0.998 | 0.583 | 0.559 | 0.6 |
| NCI-H1650 | 0.326 | 0.284 | 0.311 | 0.33 | 0.291 | 0.482 | 0.456 | 0.427 | 0.472 | 0.407 | 1.39 | 1.07 | 1.06 | 0.871 | 0.735 | 0.723 | 0.511 | 0.496 | 0.58 |
| EKVX | 0.349 | – | 0.514 | 0.55 | 0.492 | 0.298 | 0.277 | 0.385 | 0.322 | 0.29 | 0.939 | 0.918 | 0.868 | 0.187 | 0.188 | 0.171 | 0.697 | 0.513 | 0.535 |
| NCI-H1975 | 0.345 | 0.324 | 0.344 | 0.35 | 0.344 | 0.336 | 0.386 | 0.376 | 0.405 | 0.5 | 1.29 | 1.11 | 1.12 | 1.32 | 0.99 | 1.01 | 0.752 | 0.752 | 0.65 |
| HCC-78 | 0.36 | 0.345 | 0.444 | 0.406 | 0.384 | 0.674 | 0.597 | 0.657 | 0.661 | 0.692 | 0.792 | 0.67 | 0.622 | 0.61 | 0.592 | 0.614 | 0.489 | 0.414 | 0.425 |
| LXF-289 | 0.19 | 0.259 | 0.199 | 0.198 | 0.2 | 0.377 | 0.36 | 0.387 | 0.333 | 0.424 | 0.879 | 0.826 | 0.852 | 0.797 | 0.775 | 0.758 | 0.719 | 0.656 | 0.74 |
| RERF-LC-KJ | 0.919 | 0.667 | 0.907 | 0.881 | 0.915 | 0.763 | 0.715 | 0.689 | 0.75 | 0.665 | 0.863 | 0.802 | 0.87 | 0.828 | 0.715 | 0.693 | 0.735 | 0.588 | 0.616 |
| NCI-H1793 | 0.341 | 0.345 | 0.324 | 0.451 | 0.353 | 0.415 | – | 0.403 | 0.49 | 0.493 | 0.471 | 0.261 | 0.301 | 0.675 | 0.471 | 0.522 | 0.574 | 0.539 | 0.521 |
| NCI-H1944 | 0.209 | 0.212 | 0.206 | 0.223 | 0.217 | 0.424 | 0.432 | 0.424 | 0.453 | 0.376 | 1.03 | 1 | 1.04 | 0.897 | 0.856 | 0.951 | 0.686 | 0.561 | 0.521 |
| BEN | 0.381 | 0.324 | 0.297 | 0.307 | 0.338 | 0.645 | 0.69 | 0.723 | 0.725 | 0.824 | 0.0593 | 0.0841 | 0.0468 | 0.67 | 0.684 | 0.629 | 0.581 | 0.543 | 0.566 |
| H3255 | 0.358 | 0.381 | 0.353 | 0.327 | 0.329 | 0.727 | 0.509 | 0.625 | 0.641 | 0.57 | 0.537 | 0.64 | 0.503 | 0.249 | 0.231 | 0.223 | 0.716 | 0.752 | 0.667 |
| NCI-H1355 | 0.673 | – | 0.683 | 0.703 | 0.504 | 0.395 | 0.341 | 0.353 | 0.355 | 0.362 | 1.09 | 0.754 | 0.826 | 1.04 | 0.961 | 0.926 | 0.698 | 0.624 | 0.606 |
| HCC-366 | 0.794 | 0.565 | 0.677 | 0.668 | 0.652 | 0.363 | 0.281 | 0.348 | 0.37 | 0.402 | 1.19 | 1.03 | 1.03 | 1.29 | 1.13 | 0.951 | 0.506 | 0.325 | 0.279 |
| COR-L 105 | 0.3 | 0.302 | 0.271 | 0.344 | 0.335 | 0.652 | 0.607 | 0.596 | 0.623 | 0.658 | 0.691 | 0.668 | 0.823 | 0.377 | 0.386 | 0.371 | 0.615 | 0.706 | 0.66 |
| NCI-H1437 | 0.428 | 0.288 | 0.283 | 0.405 | 0.461 | 0.59 | 0.513 | 0.549 | 0.596 | 0.631 | 1.04 | 0.859 | 0.893 | 0.861 | 0.651 | 0.622 | 0.787 | 0.572 | 0.665 |
| LOU-NH91 | 0.617 | 0.496 | 0.513 | 0.57 | 0.5 | 0.829 | 0.787 | 0.796 | 0.823 | 0.79 | 0.73 | 0.666 | 0.717 | 0.859 | 0.832 | 0.854 | 0.985 | 0.913 | 1.04 |
